From patent US8053416B2, “Isolation and structure of turbostatins 1-4” (Arizona Board of Regents, a body corporate of the State of …, priority 2005, dated 2011)

Key:
[1] = system: MCF-7 (breast adenocarcinoma); experiment: NCI sulforhodamine B human cancer cell growth inhibition, MCF-7; format: cell-based; conditions: in DMSO
Protocol: (§1) Cancer Cell Line Methods. The National Cancer Institute's standard sulforhodamine B assay was used to assess inhibition of human cancer cell growth. The murine P388 lymphocytic leukemia cell line results were obtained using 10% horse serum/Fisher medium with incubation for 24 hours.

[2] = system: DU-145 (prostate carcinoma); experiment: NCI sulforhodamine B human cancer cell growth inhibition, DU-145; format: cell-based; conditions: in DMSO
Protocol: as §1

[3] = system: NCI-H460 (lung large cell); experiment: NCI sulforhodamine B human cancer cell growth inhibition, NCI-H460; format: cell-based; conditions: in DMSO
Protocol: as §1

[4] = system: murine P388 lymphocytic leukemia cell line; experiment: Murine P388 lymphocytic leukemia cell line growth inhibition; format: cell-based; conditions: in DMSO
Protocol: as §1

[5] = system: KML20L2 (colon adenocarcinoma); experiment: NCI sulforhodamine B human cancer cell growth inhibition, KML20L2; format: cell-based; conditions: in DMSO
Protocol: as §1

SF268 (CNS glioblastoma) = experiment: NCI sulforhodamine B human cancer cell growth inhibition, SF268; format: cell-based; conditions: in DMSO
Protocol: as §1

[6] = system: BXPC-3 (pancreas adenocarcinoma); experiment: NCI sulforhodamine B human cancer cell growth inhibition, BXPC-3; format: cell-based; conditions: in DMSO
Protocol: as §1

[7] = system: murine P388 lymphocytic leukemia (in vivo); conditions: dose levels from 4.0 to 800 mg/kg, 123 = 23% increase in median survival time; cited from earlier work
[8] = system: in vivo L-1210 lymphoid leukemia; conditions: cited from earlier work
[9] = system: human epidermoid carcinoma of the nasopharynx (KB) cell line; conditions: cited from earlier work

Structure (SMILES) | Cell line inhibition value GI50 [1] [µg/mL] | Cell line inhibition value GI50 [2] [µg/mL] | Cell line inhibition value GI50 [3] [µg/mL] | Cell line inhibition value GI50 [4] [µg/mL] | Cell line inhibition value GI50 [5] [µg/mL] | Cell line inhibition value GI50 (SF268 (CNS glioblastoma)) [µg/mL] | Cell line inhibition value GI50 [6] [µg/mL] | T/C [7] | Activity against in vivo L-1210 lymphoid leukemia [8] | Activity against KB cell line [9]
CCCCCCCCCCC/C=C/[C@@H](O)[C@H](CO[C@@H]1O[C@H](CO)[C@@H](O)[C@H](O)[C@H]1O)NC(=O)CCCCCCCCCCCCCCC [Compound 1, 1-O-β-D-glucopyranosyl-2S-hexadecanoylamino-3R-hydroxy-4E-hexadecene] | 0.44 | 1.6 | 0.34 | 0.27 | 0.35 | 0.98 | 0.71 | – | – | –
CCCCCCCCCCC/C=C/[C@@H](O)[C@H](CO[C@@H]1O[C@H](CO)[C@@H](O)[C@H](O)[C@H]1O)NC(=O)CCCCCCCCCCCCCCCCC [Compound 2, 1-O-β-D-glucopyranosyl-2S-octadecanoylamino-3R-hydroxy-4E-hexadecene] | 0.39 | 1.7 | 0.53 | 0.15 | 0.35 | 1.9 | 1.0 | – | – | –
CCCCCCCCCCC/C=C/[C@@H](O)[C@H](CO[C@@H]1O[C@H](CO)[C@H](O)[C@H](O)[C@H]1O)NC(=O)CCCCCCCCCCCCCCC [Compound 3, 1-O-β-D-galactopyranosyl-2S-hexadecanoylamino-3R-hydroxy-4E-hexadecene] | 0.48 | 2.6 | 0.55 | 0.25 | 0.48 | 1.9 | 1.6 | – | – | –
CCCCCCCCCCC/C=C/[C@@H](O)[C@H](CO[C@@H]1O[C@H](CO)[C@H](O)[C@H](O)[C@H]1O)NC(=O)CCCCCCCCCCCCCCCCC [Compound 4, 1-O-β-D-galactopyranosyl-2S-octadecanoylamino-3R-hydroxy-4E-hexadecene] | 0.44 | 2.6 | 0.49 | 0.29 | 0.41 | 1.5 | 0.93 | – | – | –
NCCS(=O)(=O)O [taurine] | – | – | – | – | – | – | – | ≤ 123 | inactive | inactive
